Test results as given in patent publication US5521315A, “Olefin substituted long chain compounds” (priority 1993, dated 1996).
Several values for one entry are separate records, joined by “and”; a condition that tells them apart may be missing. Identical values can stand only once.

Assays:
Saccharomyces cervisiae = assay: Yeast growth inhibition assay; assay type: cell-based; conditions: FIG. 14
Description: Some of the inventive compounds are effective for inhibiting yeast cell growth. This effect can be assayed by measuring growth of the yeast strain Saccharomyces cervisiae. A control yeast stain Saccharomyces cervisiae (BIO 101, Inc.) is grown overnight in YEPD broth at 30° C. A one to hundred dilution of the yeast culture is made with fresh YEPD broth. 100 μl Aliquots of the diluted culture are distributed into 96-wells titer plates. 100 μl Aliquots of drug is diluted in YEPD broth were then added to the wells. The titer plates are incubated at room temperature with continuous shaking. The cell density of the individual cultures are determined using a microplate reader with a A630 filter. The A630 of the individual yeast cultures are compared to control samples without adding drug. This assay is predictive of direct antimicrobial, particularly yeast and fungal, activity of the drugs studied.
This example illustrates the effects of CT2501R (a reference compound), CT2536R, CT2536S, CT1596R, and CT1596S of yeast growth (Saccromyces cerevasie) in the presence or absence of drug. These assays measure anti-yeast and anti-fungal activity of the drugs tested. […] Therefore either the R enantiomer, the S enantiomer or a racemic mixture of CT2536 are potential topical or systemic antimicrobial drugs.

mast cell degranulation = assay: Serotonin release assay (inhibition of mast cell degranulation); assay type: cell-based; parameters: INCORP / TOTAL: unit not given here; conditions: 50 μM; for RELEASE-SPONT: average corrected for spontaneous release; for AVERAGE % RELEASE: average of duplicates; for % RELEASE / INCORP / RELEASE / RELEASE X2 / TOTAL: duplicate wells; for inhibition at 50 µM: Mast cell
From the text: A serotonin release assay is utilized to study the utility of the inventive compounds for treatment of asthma and allergy. […] This assay measures mast cell degranulation, which is an early phase reaction to allergen challenge. Mast cells grown in tissue culture are first loaded with ^3 H serotonin, which is incorporated into the granules in the cells. The mast cells are sensitized with antigen specific monoclonal IgE, and then triggered to degranulate with the specific antigen (dinitorphenolbound to BSA (DNP)). When the cells degranulate, ^3 H Serotonin is released into the medium, and can be measured directly. The ability of the inventive compounds to inhibit the degranulation response is determined by the decrease in ^3 H Serotonin released in the presence of drug and is represented as % INHIBITION.
Specifically, the serotonin release assay seeds 2×10^5 cells in 0.5 ml medium in duplicate for spontaneous release, IgE+DNP, IgE+DNP+EtOH (vehicle control), and inventive compounds. […] The cells are incubated for 18 hours at 37° C. in 5% CO2, washed twice with 0.5 ml Isotonic Buffer (25 mM disodium PIPES pH 7.1,100 mM NaCl, 5 mM KCl, 5 mM glucose, 0.4 mM MgCl2, 1mM CaCl2, 0.1% BSA), and sterile filtered. 250 μl Isotonic Buffer is added per well and the plates are equilibrated in an incubator for about 10 min. Drug is added and cells are activated with 40 ng/ml DNP-BSA (1 mg/ml Diluted 1:200 in Isotonic Buffer) for 45 minutes using 2 μl/250 μl. Spontaneous release is determined in incubated cells with 250 μl Isotonic Buffer for 45 minutes and the reaction is stopped by removing supernatant and centrifuging at ~4000 rpm in microfuge for 15 seconds to remove any detached cells. Released radiolableled serotonin is counted. To determine amount of ^3 H-serotonin incorporated into the cells, (a) remove Isotonic Buffer and lyse cells by adding 250 μl 1% Triton-X100 in PBS, (b) add to 5 ml scintillation fluid, (c) wash 2× with Triton/PBS, and (d) add washes to scintillation tube. Percent serotonin release is calculated by dividing the amount of released serotonin by the sum of incorporated plus released serotonin and correcting for spontaneous released serotonin. Compound inhibition is calculated by dividing the percent serotonin release in the presence of a compound by the percent serotonin release in the absence of the compound.
This assay is described above and provides an in vitro model for an allergy and asthma therapeutic product.

[1] = test system: PBMC (peripheral blood mononuclear cells); assay: Two-way mixed lymphocyte reaction (MLR), proliferation of PBMC to allogeneic stimulation; assay type: cell-based, human; conditions: FIGS. 3 and 4
From the text: Various in vitro assays can be used to measure effects of the inventive compounds to module immune activity and have antitumor activity using a variety of cellular types. For example, a mixed lymphocyte reaction (MLR) provides a valuable screening tool to determine biological activity of each inventive compound. In the MLR, PBMCs (peripheral blood mononuclear cells) are obtained by drawing whole blood from healthy volunteers in a heparinized container and diluted with an equal volume of hanks balanced salt solution (HBSS). This mixture is layered on a […] density gradient, such as a Ficoll-Hypaque® gradient (specific gravity 1.08), and centrifuged at 1000×g for 25 minutes at room temperature or cooler. PBMC are obtained from a band at a plasma-Ficoll interface, separated and washed at least twice in a saline solution, such as HBSS. Contaminating red cells are lysed, such as by ACK lysis for 10 min at 37° C., and the PBMCs are washed twice in HBSS. The pellet of purified PBMCs is resuspended in complete medium, such as RPMI 1640 plus 20% human inactivated serum. Proliferative response of PBMC to allogeneic stimulation is determined in a two-way MLR performed in a 96-well microliter plate. Briefly, approximately 10^5 test purified PBMC cells in […] complete medium are co-cultured with approximately 10^5 autologous (control culture) or allogeneic (stimulated culture) PBMC cells, wherein the allogeneic cells are from HLA disparate individuals. Varying doses of compounds (drug) are added at the time of addition of cells to the microtiter plate. The cultures are incubated for 6 days at 37° C. in a 5% CO2 atmosphere. At the conclusion of the incubation tritiated thymidine is added (for example, […] of 40 to 60 Ci/mmole) and proliferation determined by liquid scintillation counting.
This example illustrates a mixed lymphocyte reaction assay of inventive compounds by showing the IC50 value of each compound in this assay and a dose response of several compounds to illustrate an IC50 determination.

human stromal cells = assay: PDGF-stimulated proliferation of human stromal cells; assay type: cell-based; conditions: 50 ng/ml PDGF-BB; drug one hour prior; FIGS. 15 and 16; read-out: IC50, stromal cell proliferation
Description: (§1) This assay is an in vitro model for restenosis and treatment of atherosclerosis and coronary artery disease. Stromal cells were starved in serum-free media for one day and then stimulated with 50 ng/ml PDGF-BB. The drugs were added at the indicated concentrations one hour prior to PDGF stimulation. Tritiated thymidine was added for one day at the time of PDGF stimulation and the cells were harvested and counted by liquid scintillation counting 24 hrs later.
Another assay for measuring activity of the inventive compounds involves determining PDGF (platelet derived growth factor) proliferative response using human-derived stromal cells. […] Two to three days later, the stromal cells are starved in serum-free media. Twenty four hours later, the cells are treated with a stimulating agent, such as PDGF-AA, PDGF-BB or basic FGF (fibroblast growth factor) with or without IL-1α or TNF, and tritiated thymidine. Cell proliferation is determined by liquid scintillation counting.
as §1

murine thymocyte = assay: Murine thymocyte stimulated by ConA and IL-2 (T cell immune suppression); assay type: cell-based; conditions: FIGS. 8 and 9
Description: A thymocyte costimulator assay is conducted to evaluate the inventive compounds to inhibit activation and proliferation of thymocytes caused by stimulation with Con A and interleukin-1 (IL-1), or […]. Thymuses are obtained from mice (e.g., female Balb/C mice) and the thymuses are removed and dissociated into culture media (e.g., RPMI 1640 without serum supplementation). The dissociated thymus tissue and cell suspension is transferred to centrifuge tubes and allowed to settle, washed with HBSS and resuspended in serum-supplemented culture media (e.g., RPMI 1640 with 10% fetal calf serum). Any contaminating red cells are lysed, and viable cells are resuspended and counted. Thymocytes are plated (e.g., 96-well plates at a density of 2×10^5 cells/well) and a stimulating agent, such as Con A, IL-1 (e.g., IL-1α) or IL-2 is added to the well. The cells are incubated for 4 days at 37° C. On the fourth day, the cells are pulsed with tritiated thymidine and cell proliferation determined. Inventive compounds are added at the time of stimulating agent addition.
A third assay measures an ability of an inventive compound to inhibit IL-2-induced proliferation of murine thymocytes. Thymus glands are obtained from 4-6 week old mice and plated as a single cell suspension into flat bottomed wells in RPMI 1640 medium supplemented with 10% fetal calf serum. The inventive compounds are added to appropriate wells and the cells are incubated for 1-2 hrs. Concanavilin A (ConA, 0.25 mg/ml) and […] (20 ng/ml) are added and the plates are incubated for 4 days. Cell proliferation is determined as above.
FIG. 8 compares T cell immune suppression data of thirteen inventive compounds by comparing their IC50 values in a murine thymocyte stimulated by ConA and IL-2 in vitro model.

[2] = test system: CMV promoter activity in transformed (adenovirus) cells; assay: CMV promoter assay (gene transcription and translation; cytotoxicity in transformed cells); assay type: cell-based
From the text: (§2) FIG. 18 illustrates data regarding proliferative activity of various inventive compounds for inducting CMV promoter activity. The CMV promoter assay measures gene transcription and translation activity wherein any active compounds will have cytotoxic activity to inhibit cellular protein synthesis machinery in transformed (adenovirus) cells.
as §2, with “This example” for “FIG. 18”

[3] = test system: transformed cells (Ras 3T3) and normal 3T3 cells; assay: Cytotoxicity in transformed cells (Ras 3T3) versus normal 3T3 cells; assay type: cell-based; conditions: LD50 comparison; FIG. 17
Description: Each inventive compound is investigated for cytotoxicity to determine appropriate doses for biological activity assays and to prevent cytotoxic reactions in in vitro assays when characterizing activity. Cells (e.g., NIH-3T3, Ras transformed 3T3 cells, malignant melanoma LD2 cells, etc.) are added to microtiter plates and drug is added about two days after plating. Cell viability is determined using a fluorescent viability stain (e.g., 2',7'-bis-(2-carboroxyethyl)-5-(and -6)-carboxyfluorescein acetoxymethyl ester, BCECF excitation 488 nm and emission 525 nm) 24, 48 or 72 hours after addition of the drug.
This example illustrates a comparison of cytotoxicity determinations for CT1534 and CT1539 in transformed cells (Ras 3T3) and in normal 3T3 cells to determine the in vitro LD50 value in both cell types and to look for differential cytotoxicity effects between the cell types.

| Compound | inhibition of yeast growth (Saccharomyces cervisiae) | % INHIBITION (mast cell degranulation; Table 4) | RELEASE-SPONT (mast cell degranulation; Table 4) | AVERAGE % RELEASE (mast cell degranulation; Table 4) | % RELEASE (mast cell degranulation; Table 4) | INCORP (mast cell degranulation; Table 4) | RELEASE (mast cell degranulation; Table 4) | RELEASE X2 (mast cell degranulation; Table 4) | TOTAL (mast cell degranulation; Table 4) | % INHIBITION (mast cell degranulation; Table 5) | IC50 [1] | IC50 (human stromal cells) | T cell immune suppressing activity (murine thymocyte) | IC50 [2] | inhibition at 50 µM (mast cell degranulation; Table 4) | differential cytotoxicity, transformed vs normal cells [3] |
| --- | --- | --- | --- | --- | --- | --- | --- | --- | --- | --- | --- | --- | --- | --- | --- | --- |
| CC(C)=CCCC(C)CCn1c(=O)c2c(ncn2C)n(C)c1=O (racemic) [CT1596] | enantiomeric selectivity | – | – | – | – | – | – | – | – | – | – | – | – | – | – | – |
| C=CCCCCCCCCCn1c(=O)c2c(ncn2COC(=O)C(C)(C)C)n(C)c1=O [CT1403, 1-(10-undecenyl)-3-methyl-7-methylpivaloylxanthine] | – | 84.23% | 1.26% | 17.82% | 17.37% and 18.27% | 23246 and 25691 | 2443 and 2872 | 4886 and 5744 | 28132 and 31435 | 84.23% | 10 µM | < 10 µM | – | – | – | – |
| C=CCCCCCCCn1c(=O)c2c(ncn2COC(=O)C(C)(C)C)n(C)c1=O [CT1411, 1-(8-nonenyl)-3-methyl-7-methylpivaloylxanthine] | – | 87.89% | 0.97% | 17.53% | 16.79% and 18.27% | 24627 and 24663 | 2484 and 2756 | 4968 and 5512 | 29595 and 30175 | 87.89% | – | < 10 µM | potent immune suppressing activity | – | – | – |
| C=CCCCCn1c(=O)c2c(ncn2C)n(C)c1=O [CT1539, 1-(5-hexenyl)-3,7-dimethylxanthine] | – | – | 5.15% | 21.71% | – | – | – | – | – | – | – | – | – | > 500 µM | 35.8% | equally cytotoxic for both cell types |
| CC(C)=CCC[C@@H](C)CCCn1c(=O)c2c(ncn2C)n(C)c1=O [CT2536R, 1-(4-(R)-Methyl-8-methylnon-7-enyl)-3,7-dimethylxanthine] | strongly inhibited yeast growth | – | -0.55% | 16.00% | – | – | – | – | – | – | – | – | – | 30 µM | 107% | – |
| CC(C)=CCC[C@H](C)CCCn1c(=O)c2c(ncn2C)n(C)c1=O [CT2536S, 1-(4-(S)-Methyl-8-methylnon-7-enyl)-3,7-dimethylxanthine] | strongly inhibited yeast growth | – | 0.21% | 16.76% | – | – | – | – | – | – | – | – | – | 30 µM | 97.4% | – |
